US8354419B2, “Benzimidazole analogues for the treatment or prevention of flavivirus infections” (Vertex Pharmaceuticals Incorporated, priority 2009, dated 2013)

These compounds were tested on HCV (Ib) RNA replication (assay: Cell-based luciferase reporter HCV (1b) RNA replication assay (replicon cell lines Huh-7 5.2 and ET)). Details: HCV 1b genotype replicon, luciferase readout, 4 days incubation; read-out: EC50_1b.
Set-up: species or system Hepatitis C virus
From the text: Cell-Based Luciferase Reporter HCV (Ib) RNA Replication Assay Cell Culture
Replicon cell lines Huh-7, 5.2 and ET which are derived from the Huh-7 hepatocarcinoma cell line are maintained in culture as generally described in Krieger, N; Lohmann, V; Bartenschlager, R. Enhancement of hepatitis C virus RNA replication by cell culture-adaptive mutations. J. Virol. 2001, 75, 4614-4624. The Huh-7, 5.2 cells contain the highly cell culture-adapted replicon I389luc-ubi-neo/NS3-3′/5.1 construct that carries, in addition to the neomycin gene, an integrated copy to the firefly luciferase gene (Krieger, N; Lohmann, V; Bartenschlager, R. Enhancement of hepatitis C virus RNA replication by cell culture-adaptive mutations. J. Virol. 2001, 75, 4614-4624). This cell line allows measurement of HCV RNA replication and translation by measuring luciferase activity. It has been previously shown that the luciferase activity tightly follows the replicon RNA level in these cells (Krieger, N; Lohmann, V; Bartenschlager, R. Enhancement of hepatitis C virus RNA replication by cell culture-adaptive mutations. J. Virol. 2001, 75, 4614-4624). The Huh-7, ET cell line has the same features as those mentioned for Huh-7, 5.2 cell line, except that ET cells are more robust and contain an adaptative mutation in the HCV NS4B gene instead of NS5A. Both cell lines are maintained in cultures at a sub-confluent level (<85%) as the level of replicon RNA is highest in actively proliferating cells. The culture media used for cell passaging consist of DMEM (Gibco BRL Laboratories, Mississauga, ON, Canada) supplemented with 10% foetal bovine serum with 1% penicillin/streptomycin, 1% glutamine, 1% sodium pyruvate, 1% non-essential amino acids, and 180 ug/ml of G418 final concentration. Cells are incubated at 37° C., in an atmosphere of 5% CO2 and passaged twice a week to maintain sub-confluence.
Approximately 3000 viable Huh-7, 5.2 or ET cells (100 μl) are plated per well in a white opaque 96-well microtiter plate. The cell culture media used for the assay is the same as described above except that it contains no G418 and no phenol red. After an incubation period of 3-4 hours at 37° C. in a 5% CO2 incubator, compounds (100 μl) are added at various concentrations. Cells are then further incubated for 4 days at 37° C. in a 5% CO2 incubator. Thereafter, the culture media is removed and cells are lysed by the addition of 95 μL of the luciferase buffer (luciferin substrate in buffered detergent). Cell lysates are incubated at room temperature and protected from direct light for at least 10 minutes. Plates are read for luciferase counts using a luminometer (Wallac MicroBeta Trilux, Perkin ELmer™, MA, USA).
The 50% inhibitory concentrations (IC50s) for inhibitory effect are determined from dose response curves using eleven concentrations per compound in duplicate. Curves are fitted to data points using nonlinear regression analysis, and IC50s are interpolated from the resulting curve using GraphPad Prism software, version 2.0 (GraphPad Software Inc., San Diego, Calif., USA).
Table 2 show compounds representative of the present invention and the EC50 values against the HCV 1b genotype.

Compound	EC50
COC(=O)NC(C(=O)N1CCC[C@H]1c1nc2ccc(-c3ccc(-c4ccc5nc([C@@H]6CCCN6C(=O)[C@@H](NC(=O)OC)C(C)C)[nH]c5c4)cc3)cc2[nH]1)C(C)(C)C (stereo partly shown) [Compound 212]	≤ 5 nM
COC(=O)NC(C(=O)N1CCCC1c1nc2cc(-c3ccc(-c4ccc5nc(C6CCCN6C(=O)C(NC(=O)OC)C(C)(C)C)[nH]c5c4)cc3)ccc2[nH]1)C(C)(C)C (stereo not shown) [Compound 191]	≤ 5 nM

Same assay, conditions: Hepatitis C virus, Huh-7, 96 h, HCV 1b genotype replicon, luciferase readout, 4 days incubation; read-out: EC50_1b

Compound	EC50
COC(=O)N(C)[C@H](C(=O)N1C[C@@H](C)C[C@H]1c1nc2cc(-c3ccc(-c4ccc5[nH]c([C@@H]6C[C@H](C)CN6C(=O)[C@H](C(C)C)N(C)C(=O)OC)nc5c4)cc3)ccc2[nH]1)C(C)C [Compound 247]	≤ 5 nM
COC(=O)N(C)[C@H](C(=O)N1C[C@@H](C)C[C@H]1c1nc2cc(-c3ccc(-c4ccc5[nH]c([C@@H]6C[C@H](C)CN6C(=O)[C@H](C(C)C)N(C)C(=O)OC)nc5c4)c(F)c3)ccc2[nH]1)C(C)C [Compound 278]	≤ 5 nM
C[C@@H](C(=O)N1CCC[C@H]1c1nc2cc(C#Cc3ccc4[nH]c([C@@H]5CCCN5C(=O)[C@H](C)N5CCCC5=O)nc4c3)ccc2[nH]1)N1CCCC1=O [Compound 79]	≤ 5 nM
COC(=O)N[C@H](C(=O)N1CCC[C@H]1c1nc2ccc(-c3cccc(-c4ccc5nc([C@@H]6CCCN6C(=O)[C@@H](NC(=O)OC)C(C)C)[nH]c5c4)c3)cc2[nH]1)C(C)C [Compound 2, ((S)-1-{(S)-2-[5-(3-{2-[(S)-1-((S)-2-Methoxycarbonylamino-3-methyl-butyryl)-pyrrolidin-2-yl]-1H-benzoimidazol-5-yl}-phenyl)-1H-benzoimidazol-2-yl]-pyrrolidine-1-carbonyl}-2-methyl-propyl)-carbamic acid methyl ester]	5 to 5000 nM
COC(=O)NC(C(=O)N1CCC[C@H]1c1nc2ccc(-c3ccc(-c4ccc5nc([C@@H]6CCCN6C(=O)[C@@H](NC(=O)OC)C(C)C)[nH]c5c4)cc3)cc2[nH]1)C(C)(C)C (stereo partly shown) [Compound 211]	≤ 5 nM
COC(=O)N[C@H](C(=O)N1CCCC[C@H]1c1nc2cc(C#Cc3ccc4[nH]c([C@@H]5CCCCN5C(=O)[C@@H](NC(=O)OC)C(C)C)nc4c3)ccc2[nH]1)C(C)C [Compound 58]	≤ 5 nM
C(#Cc1ccc2[nH]c([C@@H]3CCCN3CC3CCCC3)nc2c1)c1ccc2[nH]c([C@@H]3CCCN3CC3CCCC3)nc2c1 [Compound 139]	5 to 5000 nM
COC(=O)N[C@H](C(=O)N1C[C@@H](C)C[C@H]1c1nc2cc(-c3cc(F)c(-c4ccc5[nH]c([C@@H]6C[C@H](C)CN6C(=O)[C@H](C(C)C)N(C)C(=O)OC)nc5c4)cc3F)ccc2[nH]1)C(C)C [Compound 281]	≤ 5 nM
CCC[C@H](NC(C)=O)C(=O)N1CCC[C@H]1c1nc2cc(C#Cc3ccc4[nH]c([C@@H]5CCCN5C(=O)[C@H](CCC)NC(C)=O)nc4c3)ccc2[nH]1 [Compound 109]	5 to 5000 nM
COC(=O)N[C@H](C(=O)N1C[C@@H](O)C[C@H]1c1nc2cc(-c3ccc(-c4ccc5[nH]c([C@@H]6C[C@H](O)CN6C(=O)[C@@H](NC(=O)OC)C(C)C)nc5c4)c(C)c3)ccc2[nH]1)C(C)C [Compound 265]	≤ 5 nM
O=C([C@H]1CCCO1)N1CCC[C@H]1c1nc2cc(C#Cc3ccc4nc([C@@H]5CCCN5C(=O)[C@H]5CCCO5)[nH]c4c3)ccc2[nH]1 [Compound 32, [(S)-5-(5-{2-[(S)-1-((R)-tetrahydro-furan-2-carbonyl)-pyrrolidin-2-yl]-1H-benzoimidazol-5-ylethynyl}-1H-benzoimidazol-2-yl)-pyrrolidin-1-yl]-(R)-tetrahydro-furan-2-yl-methanone]	5 to 5000 nM
COC(=O)N(C)[C@H](C(=O)N1CCC[C@H]1c1nc2cc(CCc3ccc4nc([C@@H]5CCCN5C(=O)[C@H](C(C)C)N(C)C(=O)OC)[nH]c4c3)ccc2[nH]1)C(C)C [Compound 72]	≤ 5 nM
COC(=O)NCC(=O)N1CCC[C@H]1c1nc2cc(C#Cc3ccc4nc([C@@H]5CCCN5C(=O)CNC(=O)OC)[nH]c4c3)ccc2[nH]1 [Compound 93]	5 to 5000 nM
C[C@H]1C[C@@H](c2nc3ccc(-c4ccc(-c5ccc6nc([C@@H]7C[C@H](C)CN7C(=O)OC(C)(C)C)n(C)c6c5)cc4)cc3[nH]2)N(C(=O)OC(C)(C)C)C1 [Compound 292]	5 to 5000 nM
CC(C)[C@H](N)C(=O)N1CCC[C@H]1c1nc2ccc(-c3ccc(-c4ccc5nc([C@@H]6CCCN6C(=O)[C@@H](N)C(C)C)[nH]c5c4)cc3)cc2[nH]1 [Compound 197]	5 to 5000 nM
CC[C@@H](NC(C)=O)C(=O)N1CCC[C@H]1c1nc2cc(C#Cc3ccc4[nH]c([C@@H]5CCCN5C(=O)[C@@H](CC)NC(C)=O)nc4c3)ccc2[nH]1 [Compound 104]	5 to 5000 nM
COC(=O)N[C@H](C(=O)N1C[C@@H](C)C[C@H]1c1nc2cc(-c3ccc(-c4ccc5[nH]c([C@@H]6C[C@H](C)CN6C(=O)[C@@H](NC(=O)OC)C(C)C)nc5c4)c(F)c3)ccc2[nH]1)C(C)C [Compound 242]	≤ 5 nM
COC(=O)N[C@H](C(=O)N1C[C@@H](C(F)F)C[C@H]1c1nc2cc(-c3ccc(-c4ccc5[nH]c([C@@H]6C[C@H](C(F)F)CN6C(=O)[C@@H](NC(=O)OC)C(C)C)nc5c4)cc3)ccc2[nH]1)C(C)C [Compound 315]	≤ 5 nM
CC(C)[C@H](NC(=O)N(C)C)C(=O)N1CCC[C@H]1c1nc2cc(C#Cc3ccc4nc([C@@H]5CCCN5C(=O)[C@@H](NC(=O)N(C)C)C(C)C)[nH]c4c3)ccc2[nH]1 [Compound 91]	≤ 5 nM
COC(=O)N[C@H](C(=O)N1C(C)CC[C@H]1c1nc2cc(-c3ccc(-c4ccc5[nH]c([C@@H]6CCC(C)N6C(=O)[C@@H](NC(=O)OC)C(C)C)nc5c4)cc3)ccc2[nH]1)C(C)C (stereo partly shown) [Compound 269]	≤ 5 nM
COC(=O)N[C@H](C(=O)N1CC2(CC2)C[C@H]1c1nc2cc(-c3ccc(-c4ccc5[nH]c([C@@H]6CC7(CC7)CN6C(=O)[C@@H](NC(=O)OC)C(C)C)nc5c4)cc3)ccc2[nH]1)C(C)C [Compound 245]	≤ 5 nM
O=C(C1CCCC1)N1CCCC[C@H]1c1nc2cc(C#CC#Cc3ccc4[nH]c([C@@H]5CCCCN5C(=O)C5CCCC5)nc4c3)ccc2[nH]1 [Compound 120]	> 5000 nM
COC(=O)N[C@H](C(=O)N1CCC[C@H]1c1nc2cc(-c3ccc(-c4ccc5nc([C@@H]6CCCN6C(=O)CCCC[C@@H]6SC[C@@H]7NC(=O)N[C@@H]76)[nH]c5c4)cc3)ccc2[nH]1)C(C)C [Compound 216]	≤ 5 nM
COC(=O)N[C@H](C(=O)N1C[C@@H](C)C[C@H]1c1nc2cc(-c3ccc(-c4ccc5nc([C@@H]6C[C@H](C)CN6C(=O)[C@@H](NC(=O)OC)C(C)C)[nH]c5c4)cc3C(=O)O)ccc2[nH]1)C(C)C [Compound 270]	5 to 5000 nM
COC(=O)N[C@H](C(=O)N1C[C@@H](C)C[C@H]1c1nc2cc(-c3ccc(-c4ccc5[nH]c([C@@H]6C[C@H](C)CN6C(=O)[C@H](C(C)C)N(C)C(=O)OC)nc5c4)c(F)c3)ccc2[nH]1)C(C)C [Compound 286]	≤ 5 nM
COC(=O)N[C@H](C(=O)N1CCC[C@H]1c1nc2cc(C#Cc3ccc4[nH]c([C@@H]5CCCN5C(=O)[C@@H](NC(=O)OC)C5CCCCC5)nc4c3)ccc2[nH]1)C1CCCCC1 [Compound 95]	≤ 5 nM
CCN(C(=O)OC)[C@H](C(=O)N1C[C@@H](C)C[C@H]1c1nc2ccc(-c3ccc(-c4ccc5[nH]c([C@@H]6C[C@H](C)CN6C(=O)[C@@H](NC(=O)OC)C(C)C)nc5c4)cc3)cc2[nH]1)C(C)C [Compound 297]	≤ 5 nM
COC(=O)N[C@@H](Cc1cncn1C)C(=O)N1CCC[C@H]1c1nc2cc(-c3ccc(-c4ccc5[nH]c([C@@H]6CCCN6C(=O)[C@@H](NC(=O)OC)C(C)C)nc5c4)cc3)ccc2[nH]1 [Compound 203]	≤ 5 nM
COC(=O)N[C@H](C(=O)N1CCC[C@H]1c1nc2cc(-c3cc(F)c(-c4ccc5nc([C@@H]6CCCN6C(=O)[C@@H](NC(=O)OC)C(C)C)[nH]c5c4)cc3F)ccc2[nH]1)C(C)C [Compound 42, ((S)-1-{(S)-2-[5-(4-{2-[(S)-1-((S)-2-Methoxycarbonylamino-3-methyl-butyryl)-pyrrolidin-2-yl]-1H-benzoimidazol-5-yl}-2,5-difluoro-phenyl)-1H-benzoimidazol-2-yl]-pyrrolidine-1-carbonyl}-2-methyl-propyl)-carbamicacid methyl ester]	≤ 5 nM
